Data on 9 compounds can be found in US20130253012A1, “Pyrazole Compounds for Controlling Invertebrate Pests” (BASF SE, priority 2010, published 2013).

Type in all cases: in vivo
Data set [1] has as its system Cotton Aphid (Aphis gossypii, Mixed Life Stages). Kind of data set: Cotton aphid, method a) (cotyledon dip). The conditions noted are these: 300 ppm; cotton cotyledons dipped; counts after 5 days. The text has this: (§1) II.1 Cotton Aphid (Aphis gossypii, Mixed Life Stages)
(§2) The active compounds were formulated in 50:50 (v/v) acetone:water and 100 ppm nonionic surfactant (Kinetic®).
Cotton plants at the cotyledon stage (one plant per pot) were infested by placing a heavily infested leaf from the main colony on top of each cotyledon. The aphids were allowed to transfer to the host plant overnight, and the leaf used to transfer the aphids was removed. The cotyledons were dipped in the test solution and allowed to dry. After 5 days, mortality counts were made.

Data set [2] concerns Green Peach Aphid (Myzus persicae, Mixed Life Stages). Kind of data set: Green peach aphid, method a) (leaf dip, pepper plants). The settings on record: 300 ppm; pepper plant leaves dipped; after 5 days. The protocol:
(§3) II.2 Green Peach Aphid (Myzus persicae, Mixed Life Stages)
as §2
Pepper plants in the 2nd leaf-pair stage (variety ‘California Wonder’) were infested with approximately 40 laboratory-reared aphids by placing infested leaf sections on top of the test plants. The leaf sections were removed after 24 hours. The leaves of the intact plants were dipped into gradient solutions of the test compound and allowed to dry. Test plants were maintained under fluorescent light (24 hour photoperiod) at about 25° C. and 20-40% relative humidity. Aphid mortality on the treated plants, relative to mortality on check plants, was determined after 5 days.

Data set [3] concerns Cowpea Aphid (Aphis craccivora). Kind of data set: Cowpea aphid, sprayed potted cowpea plants. The settings on record: assessed after 24, 72 and 120 hours, read-out: mortality in comparison with untreated controls. The protocol: II.3 Cowpea Aphid (Aphis craccivora)
The active compounds were formulated in 50:50 (v/v) acetone:water. The test solution was prepared at the day of use.
Potted cowpea plants colonized with 100-150 aphids of various stages were sprayed after the pest population had been recorded. Population reduction was assessed after 24, 72, and 120 hours.

The subject of data set [4] is Vetch Aphid (Megoura viciae). Kind of data set: Vetch aphid, bean leaf disks in microtiterplates. The conditions noted are these: foliar, 144 h, test solution 2500 mg/L, bean leaf disks sprayed with 2.5 μl, 6 days. As for the experimental part: II.4 Vetch Aphid (Megoura viciae)
The active compounds were formulated in 1:3 (v/v) DMSO:water with different concentrations of formulated compounds.
Bean leaf disks were placed into microtiterplates filled with 0.8% agar-agar and 2.5 ppm OPUS™. The leaf disks were sprayed with 2.5 μl of the test solution and 5 to 8 adult aphids were placed into the microtiterplates which were then closed and kept at 23±1° C. and 50±5% relative humidity under fluorescent light for 6 days. Mortality was assessed on the basis of vital, reproduced aphids. Aphid mortality and fecundity was then visually assessed.

Data set [5] deals with Cotton Aphid (Aphis gossypii, Mixed Life Stages). Kind of data set: Cotton aphid, method b) (electrostatic spray). The settings on record: 120 h, infested cotton plants sprayed, after 5 days, read-out: mortality in comparison with untreated controls. As for the experimental part: as §1
(§4) The active compounds were formulated in cyclohexanone as a 10,0000 ppm solution supplied in 1.3 ml ABgene® tubes. These tubes were inserted into an automated electrostatic sprayer equipped with an atomizing nozzle and they served as stock solutions for which lower dilutions were made in 50% acetone:50% water (v/v). A nonionic surfactant (Kinetic®) was included in the solution at a volume of 0.01% (v/v).
Cotton plants at the cotyledon stage were infested with aphids prior to treatment by placing a heavily infested leaf from the main aphid colony on top of each cotyledon. Aphids were allowed to transfer overnight to accomplish an infestation of 80-100 aphids per plant and the host leaf was removed. The infested plants were then sprayed by an automated electrostatic plant sprayer equipped with an atomizing spray nozzle. The plants were dried in the sprayer fume hood, removed from the sprayer, and then maintained in a growth room under fluorescent lighting in a 24 hour photoperiod at 25° C. and 20-40% relative humidity. Aphid mortality on the treated plants, relative to mortality on untreated control plants, was determined after 5 days.

The test system of data set [6] is Boll Weevil (Anthonomus grandis). Kind of data set: Boll weevil, insect diet with eggs in 24-well microtiter plates. The settings on record: 120 h, test solution 2500 mg/L, 20 μl sprayed onto insect diet, 5 days, read-out: mortality (egg and larval). The protocol: II.5 Boll Weevil (Anthonomus grandis)
The compounds were formulated in 75:25 (v/v) water:DMSO.
For evaluating control of boll weevil (Anthonomus grandis) the test unit consisted of 24-well-microtiter plates containing an insect diet and 20-30 A. grandis eggs. Different concentrations of formulated compounds were sprayed onto the insect diet at 20 μl, using a custom built micro atomizer, at two replications. After application, the microtiter plates were incubated at 23±1° C. and 50±5% relative humidity for 5 days. Egg and larval mortality was then visually assessed.

Data set [7] deals with Green Peach Aphid (Myzus persicae, Mixed Life Stages). Kind of data set: Green peach aphid, method b) (electrostatic spray, bell pepper plants). The settings on record: 120 h, infested bell pepper plants sprayed, after 5 days, read-out: mortality in comparison with untreated controls. As for the experimental part:
as §3, §4
Bell pepper plants at the first true-leaf stage were infested prior to treatment by placing heavily infested leaves from the main colony on top of the treatment plants. Aphids were allowed to transfer overnight to accomplish an infestation of 30-50 aphids per plant and the host leaves were removed. The infested plants were then sprayed by an automated electrostatic plant sprayer equipped with an atomizing spray nozzle. The plants were dried in the sprayer fume hood, removed, and then maintained in a growth room under fluorescent lighting in a 24 hour photoperiod at 25° C. and 20-40% relative humidity. Aphid mortality on the treated plants, relative to mortality on untreated control plants, was determined after 5 days.

The test system of data set [8] is Green Peach Aphids (Myzus persicae). Kind of data set: Hydroponic test against green peach aphids (bare root pepper plants). The settings on record: bare roots immersed 24 hours, assay 3 days, read-out: mortality in comparison with untreated controls. As for the experimental part:
II.9 Activity in the Hydroponic Tests Against Green Peach Aphids (Myzus persicae)
Green pepper plants (Capsicum annuum L., variety ‘California Wonder’) were grown in the greenhouse from seed to the second true leaf stage (BBCH 12) in Scott's Metro-Mix® 360 (1 to 2 plants per 2¼″ square pot). Cotyledon leaves were removed and roots were rinsed in tap water until free of soil. The roots were kept moist under a layer of wet paper toweling until all plants had been prepared.
(§5) A 3,400 ppm stock solution was prepared of each test compound using reagent grade acetone as the solvent. Subsequent dilutions of 100 and 10 ppm were prepared from this stock with final dilutions in deionized water in 100 ml amber glass bottles. One bare root plant was placed in each bottle using a foam plug section to centrally secure the stem in the bottleneck. The bare roots were fully-immersed in the test suspensions. Host plants were placed in a plant growth room under continuous GroLux® fluorescent lighting (40 Watt), for 24 hours at 25±2° C. and 20-40% relative humidity.
After exposure of the bare roots to the test suspensions, pieces of pepper plants infested with green peach aphid (Myzus persicae) were placed on top of the test foliage. Insects were allowed to transfer from the host leaves to accomplish an infestation of 40-50 insects per plant. The assay was allowed to run for 3 days in the same growth room as used previously. Assessments included estimates of aphid population density reduction relative to the average density of aphids on the untreated control plants. Phytotoxic responses of the host plants were also recorded at this time.

The test system of data set [9] is Green Peach Aphid (Myzus persicae). Kind of data set: Green peach aphid through systemic means, artificial diet under membrane. The conditions noted are these: 72 h, pipetted into aphid diet, 3 days, read-out: mortality in comparison with untreated controls. An excerpt:
II.6 Activity Against Green Peach Aphid (Myzus persicae)
For evaluating control of green peach aphid (Myzus persicae) through systemic means the test unit consisted of 96-well-microtiter plates containing liquid artificial diet under an artificial membrane.
The compounds were formulated using a solution containing 75% v/v water and 25% v/v DMSO. Different concentrations of formulated compounds were pipetted into the aphid diet, using a custom built pipetter, at two replications. After application, 5 to 8 adult aphids were placed on the artificial membrane inside the microtiter plate wells. The aphids were then allowed to suck on the treated aphid diet and incubated at about 23+1° C. and about 50+5% relative humidity for 3 days. Aphid mortality and fecundity was then visually assessed.

The test system of data set [10] is Cotton Aphids (Aphis gossypii). Kind of data set: Hydroponic test against cotton aphids (bare root cotton plants). The conditions noted are these: bare roots immersed 24 hours, assay 3 days, read-out: mortality in comparison with untreated controls. As for the experimental part: II.10 Activity in the Hydroponic Tests Against Cotton Aphids (Aphis gossypii)
Cotton plants (Gossypium hirsutum, variety ‘Sure Grow 747’) were grown in the greenhouse from seed to the second true leaf stage (BBCH 12) in Scott's Metro-Mix® 360 (1 to 2 plants per 2¼″ square pot). Cotyledon leaves were removed and roots were rinsed in tap water until free of soil. The roots were kept moist under a layer of wet paper toweling until all plants had been prepared.
as §5
After exposure of the bare roots to the test suspensions, pieces of cotton plants infested with cotton aphids (Aphis gossypi) were placed on top of the test foliage. Insects were allowed to transfer from the host leaves to accomplish an infestation of 40-50 insects per plant. […] Phytotoxic responses of the host plants were also recorded at this time.

Data set [11] has as its system Silverleaf Whitefly (Bemisia argentifolii, Adult). Kind of data set: Silverleaf whitefly, sprayed cotton plants. The conditions noted are these: 72 h, 3 days after treatment, read-out: mortality in comparison with untreated controls. The protocol:
II.7 Silverleaf Whitefly (Bemisia argentifolii, Adult)
as §4
Cotton plants at the cotyledon stage (one plant per pot) were sprayed by an automated electrostatic plant sprayer equipped with an atomizing spray nozzle. The plants were dried in the sprayer fume hood and then removed from the sprayer. Each pot was placed into a plastic cup and 10 to 12 whitefly adults (approximately 3-5 days old) were introduced. The insects were collected using an aspirator and 0.6 cm, nontoxic Tygon® tubing (R-3603) connected to a barrier pipette tip. The tip, containing the collected insects, was then gently inserted into the soil containing the treated plant, allowing insects to crawl out of the tip to reach the foliage for feeding. Cups were covered with a reusable screened lid (150-micron mesh polyester screen PeCap from Tetko, Inc.). […] Mortality was assessed 3 days after treatment, compared to untreated control plants.

Turning to `Cn1cc(-c2nncn2-c2cccnc2)c(C(F)(F)F)n1` [Example 1], the “mortality in comparison with untreated controls” value is recorded as “at least 75%” in [1] and “at least 90%” in data set [2].

In the case of `Cc1c(-c2nncn2-c2cccnc2)cnn1CC(F)(F)F` [Example 2, 3-{3-[5-Methyl-1-(2,2,2-trifluoroethyl)-1H-pyrazol-4-yl]-[1,2,4]triazol-4-yl}pyridine], the mortality at 500 ppm in [3] was at least 75%.

In the case of `Cc1c(-c2nc(-c3cccnc3)co2)cnn1CC(F)(F)F` [Example 4, 3-{2-[5-Methyl-1-(2,2,2-trifluoroethyl)-1H-pyrazol-4-yl]-oxazol-4-yl}pyridine], the mortality at 2500 µg/mL in [4] is at least 90%.

In the case of `Cc1c(-c2nnc(-c3cccnc3)o2)cnn1CC(F)(F)F` [Example 14, 3-{5-[5-Methyl-1-(2,2,2-trifluoroethyl)-1H-pyrazol-4-yl]-[1,3,4]oxadiazol-2-yl}pyridine], the mortality at 300 ppm in data set [5] and in [7] was at least 75% in each case. For the same compound, the mortality at 2500 µg/mL in data set [6] is at least 50%. Also, in data set [3], the mortality at 500 ppm is at least 75%.

Take `Cc1c(-c2nnc(-c3cccnc3)s2)cnn1CC(F)(F)F` [Example 15, 3-{5-[5-Methyl-1-(2,2,2-trifluoroethyl)-1H-pyrazol-4-yl]-[1,3,4]thiadiazol-2-yl}pyridine]: the mortality at 300 ppm in data set [5] and in data set [7] was at least 75% throughout. The mortality at 2500 µg/mL in [4] was at least 90%; in [6] it was at least 50%. Also, the mortality at 100 ppm in data set [8] was at least 75%. In addition, in data set [3], the mortality at 500 ppm is at least 75%. Further, in [9], the mortality at 2500 ppm amounted to 100%.

On to `Cc1c(C2=NCCN2c2cccnc2)cnn1CC(F)(F)F` [Example 18, 3-{2-[5-Methyl-1-(2,2,2-trifluoroethyl)-1H-pyrazol-4-yl]-4,5-dihydroimidazol-1-yl}pyridine], for which the mortality at 300 ppm in data set [5] and in data set [7] was at least 75% in each case. The mortality at 100 ppm in data set [10] and in data set [8] was at least 75% throughout. Also, the mortality at 500 ppm in data set [3] is at least 75%. The mortality at 2500 ppm in data set [9] worked out at 100%.

Consider `Cc1c(-c2nccn2-c2cccnc2)cnn1CC(F)(F)F` [Example 20, 3-{2-[5-Methyl-1-(2,2,2-trifluoroethyl)-1H-pyrazol-4-yl]imidazol-1-yl}pyridine], for which the mortality at 300 ppm in data set [5] and in data set [7] was at least 75% throughout. Moreover, the mortality at 100 ppm in [10] and in data set [8] was at least 75% each time. The compound also came in with a mortality at 2500 µg/mL in [4] of at least 90%. Besides, the mortality at 500 ppm in data set [3] and in data set [11] was at least 75% throughout. For the same compound, the mortality at 2500 ppm in data set [9] stood at 100%.

With `Cc1c(-c2nc(-c3cccnc3)nn2C)cnn1CC(F)(F)F` [Example 38, 3-{1-methyl-5-[5-methyl-1-(2,2,2-trifluoroethyl)-1H-pyrazol-4-yl]-1H-[1,2,4]triazol-3-yl}pyridine], the mortality at 2500 µg/mL in [6] was at least 50%.

In data set [4], `Cc1c(-c2noc(=O)n2-c2cccnc2)cnn1CC(F)(F)F` [Example 39, 3-{3-[5-Methyl-1-(2,2,2-trifluoroethyl)-1H-pyrazol-4-yl]-4H-[1,2,4]oxadiazol-5-on-4-yl}pyridine] gave a mortality at 2500 µg/mL of at least 90%. Moreover, in data set [3], the mortality at 500 ppm is at least 75%. Moreover, the mortality at 2500 ppm in [9] was determined as 100%.

The mortality is the percentage killed.
